Measurements: BindingDB's records for PubMed 10869410 (Centre De Recherches De Croissy, 2000)
pKi: −log10 of the molar value. “And” between values parts separate entries of the source, which are not always exact repeats. Equal values may be shown once.

Tests used:
D(1B) dopamine receptor = D(1B) dopamine receptor (Homo sapiens, UniProt P21918)
D(3) dopamine receptor = D(3) dopamine receptor (Homo sapiens, UniProt P35462)
[1] = molecular target: 5-hydroxytryptamine receptor 2A (Rattus norvegicus, UniProt P14842)
Sequence of 5-hydroxytryptamine receptor 2A (Rattus norvegicus, UniProt P14842) (P14842 whole entry): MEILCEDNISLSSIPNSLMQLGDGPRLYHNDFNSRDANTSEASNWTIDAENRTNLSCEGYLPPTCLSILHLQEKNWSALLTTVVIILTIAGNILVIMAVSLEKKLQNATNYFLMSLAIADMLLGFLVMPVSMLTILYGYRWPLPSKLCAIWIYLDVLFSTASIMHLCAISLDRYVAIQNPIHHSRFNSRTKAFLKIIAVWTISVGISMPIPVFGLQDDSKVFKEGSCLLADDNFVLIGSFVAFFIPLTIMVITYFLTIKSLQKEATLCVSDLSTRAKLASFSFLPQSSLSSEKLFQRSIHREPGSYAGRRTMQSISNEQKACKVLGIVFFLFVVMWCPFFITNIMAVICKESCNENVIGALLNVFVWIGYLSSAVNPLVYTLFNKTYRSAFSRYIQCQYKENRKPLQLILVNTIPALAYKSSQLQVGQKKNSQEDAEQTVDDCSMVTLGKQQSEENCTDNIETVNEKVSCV

[2] = molecular target: 5-hydroxytryptamine receptor 1D (Homo sapiens, UniProt P28221)
Sequence of 5-hydroxytryptamine receptor 1D (P28221 whole entry): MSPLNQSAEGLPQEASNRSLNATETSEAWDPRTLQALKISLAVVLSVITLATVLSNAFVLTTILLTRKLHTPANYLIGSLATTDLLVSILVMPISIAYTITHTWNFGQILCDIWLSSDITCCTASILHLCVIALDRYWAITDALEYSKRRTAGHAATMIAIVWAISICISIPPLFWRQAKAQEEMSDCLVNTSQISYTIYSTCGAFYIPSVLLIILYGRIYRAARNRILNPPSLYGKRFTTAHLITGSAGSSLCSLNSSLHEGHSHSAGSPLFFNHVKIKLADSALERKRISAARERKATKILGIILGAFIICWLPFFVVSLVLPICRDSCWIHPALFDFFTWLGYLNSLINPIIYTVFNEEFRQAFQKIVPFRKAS

D(4) dopamine receptor = molecular target: T1, D(4) dopamine receptor (Homo sapiens, UniProt P21917)
T1 sequence (P21917 whole entry): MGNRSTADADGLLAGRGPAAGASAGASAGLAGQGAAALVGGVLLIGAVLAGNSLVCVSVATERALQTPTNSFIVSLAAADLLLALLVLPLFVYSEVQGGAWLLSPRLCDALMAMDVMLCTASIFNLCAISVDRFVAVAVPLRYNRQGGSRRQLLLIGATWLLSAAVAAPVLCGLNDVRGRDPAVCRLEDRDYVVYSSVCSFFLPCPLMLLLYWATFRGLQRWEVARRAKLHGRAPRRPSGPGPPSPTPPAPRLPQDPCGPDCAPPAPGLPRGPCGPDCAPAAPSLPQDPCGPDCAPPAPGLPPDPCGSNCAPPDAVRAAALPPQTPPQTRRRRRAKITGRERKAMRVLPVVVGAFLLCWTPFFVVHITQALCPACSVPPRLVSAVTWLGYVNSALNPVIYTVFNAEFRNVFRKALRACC

[3] = molecular target: T2, 5-hydroxytryptamine receptor 1A (Rattus norvegicus, UniProt P19327)
T2 sequence (P19327 whole entry): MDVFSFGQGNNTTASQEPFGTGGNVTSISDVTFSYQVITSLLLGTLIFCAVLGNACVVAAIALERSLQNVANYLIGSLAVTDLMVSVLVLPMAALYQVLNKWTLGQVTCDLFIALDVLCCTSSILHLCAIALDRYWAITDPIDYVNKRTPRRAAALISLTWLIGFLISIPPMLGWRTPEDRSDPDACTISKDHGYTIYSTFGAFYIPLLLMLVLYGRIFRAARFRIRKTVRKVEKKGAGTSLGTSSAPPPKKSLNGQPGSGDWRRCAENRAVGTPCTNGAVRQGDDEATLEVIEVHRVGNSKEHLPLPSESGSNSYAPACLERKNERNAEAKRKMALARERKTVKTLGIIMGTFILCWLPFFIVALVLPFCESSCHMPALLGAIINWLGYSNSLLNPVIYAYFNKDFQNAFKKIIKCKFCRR

[4] = molecular target: 5-hydroxytryptamine receptor 2B (Homo sapiens, UniProt P41595)
Sequence of 5-hydroxytryptamine receptor 2B (P41595 whole entry): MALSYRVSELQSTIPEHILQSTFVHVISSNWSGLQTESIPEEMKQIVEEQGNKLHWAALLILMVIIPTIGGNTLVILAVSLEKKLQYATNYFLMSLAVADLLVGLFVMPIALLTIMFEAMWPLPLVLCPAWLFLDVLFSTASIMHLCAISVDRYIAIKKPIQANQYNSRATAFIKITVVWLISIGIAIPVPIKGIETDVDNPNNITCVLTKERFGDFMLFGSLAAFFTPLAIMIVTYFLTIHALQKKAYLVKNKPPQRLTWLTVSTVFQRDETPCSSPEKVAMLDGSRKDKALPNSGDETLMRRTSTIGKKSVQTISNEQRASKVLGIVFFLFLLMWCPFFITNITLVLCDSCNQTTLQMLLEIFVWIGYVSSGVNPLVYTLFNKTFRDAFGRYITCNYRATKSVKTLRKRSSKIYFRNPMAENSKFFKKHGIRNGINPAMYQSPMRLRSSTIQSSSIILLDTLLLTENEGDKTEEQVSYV

[5] = molecular target: T3, Alpha-2A adrenergic receptor [16-465] (Rattus norvegicus, UniProt P22909)
T3 construct: 16-465
T3 sequence (P22909 whole entry): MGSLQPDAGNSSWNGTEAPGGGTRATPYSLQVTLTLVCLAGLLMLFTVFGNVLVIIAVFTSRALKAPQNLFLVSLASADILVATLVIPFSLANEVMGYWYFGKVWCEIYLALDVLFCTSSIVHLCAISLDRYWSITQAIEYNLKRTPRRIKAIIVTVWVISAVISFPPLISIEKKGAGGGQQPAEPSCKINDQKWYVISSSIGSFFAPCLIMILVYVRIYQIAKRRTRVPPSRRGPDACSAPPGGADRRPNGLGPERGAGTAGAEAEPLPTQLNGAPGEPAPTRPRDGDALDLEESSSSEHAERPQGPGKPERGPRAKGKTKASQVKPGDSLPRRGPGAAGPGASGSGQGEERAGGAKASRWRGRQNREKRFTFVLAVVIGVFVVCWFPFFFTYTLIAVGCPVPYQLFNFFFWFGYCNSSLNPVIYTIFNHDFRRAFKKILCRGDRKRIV

[6] = molecular target: 5-hydroxytryptamine receptor 1B (Homo sapiens, UniProt P28222)
Sequence of 5-hydroxytryptamine receptor 1B (Homo sapiens, UniProt P28222) (P28222 whole entry): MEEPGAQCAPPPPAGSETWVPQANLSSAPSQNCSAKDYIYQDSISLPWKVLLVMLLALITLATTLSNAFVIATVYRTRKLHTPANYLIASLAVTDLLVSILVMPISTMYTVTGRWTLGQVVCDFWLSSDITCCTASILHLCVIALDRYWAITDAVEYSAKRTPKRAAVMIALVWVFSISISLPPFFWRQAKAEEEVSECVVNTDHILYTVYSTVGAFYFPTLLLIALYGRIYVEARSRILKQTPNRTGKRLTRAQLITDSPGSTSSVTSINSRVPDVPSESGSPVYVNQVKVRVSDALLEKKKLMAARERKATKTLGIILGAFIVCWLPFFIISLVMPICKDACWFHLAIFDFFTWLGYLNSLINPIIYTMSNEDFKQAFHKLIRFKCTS

[7] = molecular target: T4, Alpha-1A adrenergic receptor (Rattus norvegicus, UniProt P43140)
T4 sequence (P43140 whole entry): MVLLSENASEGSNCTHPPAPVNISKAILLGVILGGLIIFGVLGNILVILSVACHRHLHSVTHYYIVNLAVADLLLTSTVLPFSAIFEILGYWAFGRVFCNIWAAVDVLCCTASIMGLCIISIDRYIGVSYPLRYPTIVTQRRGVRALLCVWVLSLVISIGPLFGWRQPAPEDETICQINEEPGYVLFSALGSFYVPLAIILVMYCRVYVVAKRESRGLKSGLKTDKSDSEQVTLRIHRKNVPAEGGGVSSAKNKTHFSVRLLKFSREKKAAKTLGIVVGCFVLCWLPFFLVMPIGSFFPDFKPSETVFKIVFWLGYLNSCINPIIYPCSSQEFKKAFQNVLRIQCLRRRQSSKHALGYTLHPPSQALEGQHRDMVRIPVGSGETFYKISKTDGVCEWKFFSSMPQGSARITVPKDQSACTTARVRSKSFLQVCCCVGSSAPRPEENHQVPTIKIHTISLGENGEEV

D(2) dopamine receptor [8] = molecular target: D(2) dopamine receptor (Rattus norvegicus, UniProt P61169)
Sequence of D(2) dopamine receptor (Rattus norvegicus, UniProt P61169) (P61169 whole entry): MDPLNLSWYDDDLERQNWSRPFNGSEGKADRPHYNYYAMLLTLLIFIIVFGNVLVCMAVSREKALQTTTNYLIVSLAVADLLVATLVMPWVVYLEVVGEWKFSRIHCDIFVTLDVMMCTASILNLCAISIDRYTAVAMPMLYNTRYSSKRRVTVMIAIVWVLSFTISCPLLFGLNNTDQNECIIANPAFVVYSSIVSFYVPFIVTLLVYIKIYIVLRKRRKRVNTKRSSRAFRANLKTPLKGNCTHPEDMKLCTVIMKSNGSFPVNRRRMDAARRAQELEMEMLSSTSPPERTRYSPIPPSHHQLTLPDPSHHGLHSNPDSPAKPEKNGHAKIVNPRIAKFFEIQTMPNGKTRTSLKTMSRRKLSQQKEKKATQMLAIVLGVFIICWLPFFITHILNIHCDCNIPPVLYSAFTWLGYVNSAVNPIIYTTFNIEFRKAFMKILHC

[9] = molecular target: 5-hydroxytryptamine receptor 2C (Sus scrofa, UniProt G7ZKZ7)
Sequence of 5-hydroxytryptamine receptor 2C (Sus scrofa, UniProt G7ZKZ7) (G7ZKZ7 whole entry): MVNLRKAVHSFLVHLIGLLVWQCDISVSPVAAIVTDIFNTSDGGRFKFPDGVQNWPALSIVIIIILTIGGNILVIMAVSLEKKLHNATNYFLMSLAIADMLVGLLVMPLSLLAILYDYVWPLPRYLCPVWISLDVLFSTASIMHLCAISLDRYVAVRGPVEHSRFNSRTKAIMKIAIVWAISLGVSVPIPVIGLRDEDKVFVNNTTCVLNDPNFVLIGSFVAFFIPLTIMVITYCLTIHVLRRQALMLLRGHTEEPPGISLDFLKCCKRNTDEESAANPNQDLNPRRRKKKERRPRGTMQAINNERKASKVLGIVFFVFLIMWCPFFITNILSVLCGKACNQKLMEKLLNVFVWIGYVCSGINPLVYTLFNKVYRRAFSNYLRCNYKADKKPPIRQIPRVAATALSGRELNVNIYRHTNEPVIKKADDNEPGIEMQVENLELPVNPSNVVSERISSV

[10] = molecular target: 5-hydroxytryptamine receptor 2C (Homo sapiens, UniProt P28335)
Sequence of 5-hydroxytryptamine receptor 2C (Homo sapiens, UniProt P28335) (P28335 whole entry): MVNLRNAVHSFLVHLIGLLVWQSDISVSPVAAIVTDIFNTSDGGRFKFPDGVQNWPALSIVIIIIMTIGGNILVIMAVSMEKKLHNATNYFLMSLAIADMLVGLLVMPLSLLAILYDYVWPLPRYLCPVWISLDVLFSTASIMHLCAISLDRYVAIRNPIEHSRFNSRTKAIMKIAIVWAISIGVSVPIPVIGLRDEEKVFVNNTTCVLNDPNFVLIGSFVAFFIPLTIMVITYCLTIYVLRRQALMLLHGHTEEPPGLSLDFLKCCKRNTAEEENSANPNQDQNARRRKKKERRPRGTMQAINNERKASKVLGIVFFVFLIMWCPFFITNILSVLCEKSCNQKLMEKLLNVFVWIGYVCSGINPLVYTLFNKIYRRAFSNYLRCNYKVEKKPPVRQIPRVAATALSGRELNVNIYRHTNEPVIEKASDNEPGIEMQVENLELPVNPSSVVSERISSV

[11] = molecular target: 5-hydroxytryptamine receptor 3A (Homo sapiens, UniProt P46098)
[12] = molecular target: 5-hydroxytryptamine receptor 1B (Cavia porcellus, UniProt O08892)
[13] = molecular target: Sigma non-opioid intracellular receptor 1 (Cavia porcellus, UniProt Q60492)
Sequence of Sigma non-opioid intracellular receptor 1 (Q60492 whole entry): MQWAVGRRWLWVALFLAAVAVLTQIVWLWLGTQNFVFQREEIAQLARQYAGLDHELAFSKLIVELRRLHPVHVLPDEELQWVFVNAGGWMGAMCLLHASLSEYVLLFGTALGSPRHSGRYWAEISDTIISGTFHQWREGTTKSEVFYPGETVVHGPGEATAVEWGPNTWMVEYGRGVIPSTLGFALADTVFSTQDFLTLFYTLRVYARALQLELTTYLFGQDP

[14] = molecular target: Muscarinic acetylcholine receptor M1 (Homo sapiens, UniProt P11229)
D(1A) dopamine receptor [15] = molecular target: D(1A) dopamine receptor (Rattus norvegicus, UniProt P18901)
[16] = molecular target: 5-hydroxytryptamine receptor 1A (Homo sapiens, UniProt P08908)
D(1A) dopamine receptor [17] = molecular target: D(1A) dopamine receptor (Homo sapiens, UniProt P21728)
D(2) dopamine receptor [18] = molecular target: D(2) dopamine receptor (Homo sapiens, UniProt P14416)
Sequence of D(2) dopamine receptor (Homo sapiens, UniProt P14416) (P14416 whole entry): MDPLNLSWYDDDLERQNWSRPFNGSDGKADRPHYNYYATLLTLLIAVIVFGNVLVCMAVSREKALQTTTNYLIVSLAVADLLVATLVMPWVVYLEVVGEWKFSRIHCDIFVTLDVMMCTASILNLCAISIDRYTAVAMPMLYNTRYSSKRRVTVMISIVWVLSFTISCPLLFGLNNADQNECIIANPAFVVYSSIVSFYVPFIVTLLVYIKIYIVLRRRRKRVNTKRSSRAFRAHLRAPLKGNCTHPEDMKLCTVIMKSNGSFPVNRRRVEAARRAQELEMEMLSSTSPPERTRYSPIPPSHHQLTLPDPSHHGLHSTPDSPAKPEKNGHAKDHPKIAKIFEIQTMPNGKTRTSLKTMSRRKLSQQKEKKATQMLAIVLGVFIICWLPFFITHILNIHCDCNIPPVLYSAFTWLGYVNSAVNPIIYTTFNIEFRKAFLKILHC

[19] = molecular target: 5-hydroxytryptamine receptor 2A (Homo sapiens, UniProt P28223)

Sequence of D(1B) dopamine receptor (P21918 whole entry): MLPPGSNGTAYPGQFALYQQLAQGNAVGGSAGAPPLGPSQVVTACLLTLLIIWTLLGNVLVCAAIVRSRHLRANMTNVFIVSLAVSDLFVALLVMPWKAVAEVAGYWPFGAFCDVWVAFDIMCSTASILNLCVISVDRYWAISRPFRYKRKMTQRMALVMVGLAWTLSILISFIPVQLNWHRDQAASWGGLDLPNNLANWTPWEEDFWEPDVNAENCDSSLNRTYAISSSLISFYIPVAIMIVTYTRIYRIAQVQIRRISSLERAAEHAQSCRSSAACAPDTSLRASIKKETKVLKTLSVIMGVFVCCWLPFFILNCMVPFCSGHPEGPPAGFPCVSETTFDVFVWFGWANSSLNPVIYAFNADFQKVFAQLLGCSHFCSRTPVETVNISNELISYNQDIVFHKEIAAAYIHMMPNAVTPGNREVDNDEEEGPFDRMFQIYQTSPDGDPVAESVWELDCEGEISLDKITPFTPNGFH
Sequence of D(3) dopamine receptor (P35462 as listed by the source): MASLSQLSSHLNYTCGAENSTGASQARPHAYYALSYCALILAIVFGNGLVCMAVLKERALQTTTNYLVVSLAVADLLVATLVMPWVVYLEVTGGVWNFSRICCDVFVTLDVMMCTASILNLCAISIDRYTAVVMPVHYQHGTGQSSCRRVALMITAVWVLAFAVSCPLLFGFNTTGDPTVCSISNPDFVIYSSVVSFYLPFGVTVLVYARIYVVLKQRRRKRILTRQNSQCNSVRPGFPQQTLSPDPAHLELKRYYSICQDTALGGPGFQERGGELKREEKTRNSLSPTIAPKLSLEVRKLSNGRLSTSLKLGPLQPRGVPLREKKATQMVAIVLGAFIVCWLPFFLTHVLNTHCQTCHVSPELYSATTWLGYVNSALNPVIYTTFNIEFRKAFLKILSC

Structure (SMILES) | pKi (D(1B) dopamine receptor) | pKi (D(3) dopamine receptor) | pKi [1] | pKi [2] | pKi (D(4) dopamine receptor) | pKi [3] | pKi [4] | pKi [5] | pKi [6] | pKi [7] | pKi (D(2) dopamine receptor [8]) | pKi [9] | pKi [10] | pKi [13] | pKi (D(1A) dopamine receptor [17]) | pKi (D(2) dopamine receptor [18]) | pKi [19] | further results
OC1(c2ccc(Cl)cc2)CCN(Cc2c[nH]c3ccccc23)CC1 [L741,626] | 6.20 | 7.20 and 7.06 | 6.00 | 6.00 | 6.50 | 5.40 | 6.20 | 5.90 | 6.00 | 6.60 | 8.20 | 5.40 | – | – | – | – | – | –
N#Cc1ccc2c(c1)[C@H]1CN(CCCCNC(=O)c3ccc(-c4ccccc4)cc3)C[C@@H]1CO2 [S33084] | 5.90 | 9.60 and 9.40 | 6.00 | 6.90 | 5.70 | 6.90 | 6.80 | 6.00 | 6.10 | 6.90 | 7.30 | – | 7.10 | 6.00 | 6.30 | 7.28 | 6.00 | pKi [11]: 6.00; pKi [12]: 6.00; pKi [14]: 6.40; pKi (D(1A) dopamine receptor [15]): 6.00; pKi [16]: 6.00
CCCN(CCC)C1CCc2cc(CS(=O)(=O)c3ccc(OC)cc3)ccc2C1 (stereo not given) [GR218231] | 6.00 | 9.00 and 8.87 | 6.00 | 6.00 | < 5.00 | 6.30 | 6.00 | 6.40 | 6.00 | 6.00 | 7.10 | 6.00 | 6.00 | 6.80 | 6.00 | 7.20 and 6.86 | 6.00 | –
